The values that follow come from publication PMC6934184, “Selective DNA-PKcs inhibition extends the therapeutic index of localized radiotherapy and chemotherapy” (The Journal of Clinical Investigation, 2019).

The assay addresses T1, BMPR1B (ALK6) (Homo sapiens, UniProt O00238).
T1 construct: purchased Thermo Fisher Scientific (Life Technologies) SelectScreen
Briefly: SelectScreen LanthaScreen. The settings on record: read-out: % displacement. The class given is binding. Summed up:
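SelectScreen broad panel; activity (Z'LYTE, Adapta) plus binding formats. ATP: Km app for CSF1R Z'LYTE; 10 for CAMK1 Adapta. Readout = % per kinase.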

T1 sequence (O00238 14-502): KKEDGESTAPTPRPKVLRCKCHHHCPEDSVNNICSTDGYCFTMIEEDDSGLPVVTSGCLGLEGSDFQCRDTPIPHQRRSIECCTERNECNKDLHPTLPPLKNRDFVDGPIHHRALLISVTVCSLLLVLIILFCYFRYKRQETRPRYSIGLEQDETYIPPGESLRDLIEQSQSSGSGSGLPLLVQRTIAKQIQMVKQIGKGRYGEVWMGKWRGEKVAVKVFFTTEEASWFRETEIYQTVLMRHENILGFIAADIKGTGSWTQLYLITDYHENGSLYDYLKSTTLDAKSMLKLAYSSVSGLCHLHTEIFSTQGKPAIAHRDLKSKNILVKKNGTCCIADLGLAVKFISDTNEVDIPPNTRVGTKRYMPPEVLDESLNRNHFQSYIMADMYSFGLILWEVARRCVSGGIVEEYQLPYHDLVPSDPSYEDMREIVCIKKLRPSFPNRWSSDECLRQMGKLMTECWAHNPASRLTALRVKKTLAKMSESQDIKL

For `CN(C(=O)CN1CCOCC1)c1ccc2sc3c(-c4cccc5c(=O)cc(N6CC7CCC(C6)O7)oc45)cccc3c2c1` [NU5455], the inhibition at 1 µM stood at 14.5%.
